Reference: patent US6552058B1, “Oxazolidinedione derivatives and their use” (Takeda Chemical Industries, Ltd., priority 1993, dated 2003)
Where two headings read alike, the source gives them in different places.

Assays:
KKA^y mice = assay: Hypoglycemic and hypolipidemic actions in mice (plasma glucose and triglyceride); assay type: in vivo; conditions: Mus musculus, po, 96 h, reduction from control group, 0.005% in powdery feed for 4 days
Excerpt: Hypoglycemic and Hypolipidemic Actions in Mice
A test compound mixed in a powdery feed (CE-2, Japan Clea) at a rate of 0.005% was fed to KKA^y mice (9-14 week old) freely for 4 days. During the period, the animals had free access to water. Blood was collected from the orbital venous plexus. Using the plasma, glucose and triglyceride were enzymatically determined quantitatively by using Iatrochem-GLU(A) and Iatro-MA701 TG kit (latron Inc.). The respective values are percents reduction (%) found in drug-dosed groups from the control group not receiving the test compound, which are shown in [Table 1].

[1] = plasma glucose, read-out: Hypoglycemic Action % reduction
[2] = plasma triglyceride, read-out: Hypolipidemic Action % reduction

melting point [°C]	SMILES	inhibition in vivo at 0.005 % in diet (KKA^y mice; [1]) [%]	inhibition in vivo at 0.005 % in diet (KKA^y mice; [2]) [%]
213 to 214	Cc1cccc(-c2nc(CCOc3ccc(C=CC=C4OC(=O)NC4=O)cc3)c(C)o2)c1 [Example 1, 5-[4-[2-[5-methyl-2-(3-methylphenyl)-4-oxazolyl]ethoxy]cinnamylidene]-2,4-oxazolidinedione]		
237 to 239	Cc1oc(-c2ccccc2)nc1Cc1cc2cc(C=CC=C3OC(=O)NC3=O)ccc2o1 [Example 14, 5-[3-[2-(5-methyl-2-phenyl-4-oxazolylmethyl)benzofuran-5-yl]-2-propenylidene]-2,4-oxazolidinedione]		
209 to 211	Cc1oc(-c2ccccc2)nc1CCOc1ccc(C=CC=CC=C2OC(=O)NC2=O)cc1 [Example 15, 5-[5-[4-[2-(5-methyl-2-phenyl-4-oxazolyl)ethoxy]phenyl]-2,4-pentadienylidene]-2,4-oxazolidinedione]		
193 to 194	Cc1oc(-c2ccccc2)nc1CCOc1ccc(CCC2OC(=O)NC2=O)cc1 (stereo not drawn) [Example 24, 5-[2-[4-[2-(5-methyl-2-phenyl-4-oxazolyl)ethoxy]phenyl]ethyl]-2,4-oxazolidinedione]	56	53
157 to 158	Cc1oc(-c2ccccc2)nc1CCOc1ccc(CCCCCC2OC(=O)NC2=O)cc1 (stereo not drawn) [Example 31, 5-[5-[4-[2-(5-methyl-2-phenyl-4-oxazolyl)ethoxy]phenyl]pentyl]-2,4-oxazolidinedione]		

More lines, now with the values behind:

SMILES	melting point [°C]	inhibition in vivo at 0.005 % in diet (KKA^y mice; [1]) [%]	inhibition in vivo at 0.005 % in diet (KKA^y mice; [2]) [%]
Cc1cccc(-c2nc(CCOc3ccc(CCCC4OC(=O)NC4=O)cc3)c(C)o2)c1 (stereo not drawn) [Example 16, 5-[3-[4-[2-[5-methyl-2-(3-methylphenyl)-4-oxazolyl]ethoxy]phenyl]propyl]-2,4-oxazolidinedione]	149 to 150		
Cc1oc(-c2ccccc2)nc1CCOc1ccc(CCCC2OC(=O)NC2=O)cn1 (stereo not drawn) [Example 23, 5-[3-[2-[2-(5-methyl-2-phenyl-4-oxazolyl)ethoxy]-5-pyridyl]propyl]-2,4-oxazolidinedione]	169 to 171	39	33
Cc1oc(-c2ccccc2)nc1Cc1cc2cc(CCCC3OC(=O)NC3=O)ccc2o1 (stereo not drawn) [Example 30, 5-[3-[2-(5-methyl-2-phenyl-4-oxazolylmethyl)benzofuran-5-yl]propyl]-2,4-oxazolidinedione]	184 to 185	57	70
Cc1oc(-c2ccccc2)nc1COc1ccc(CCC2OC(=O)NC2=O)cc1 (stereo not drawn) [Example 32, 5-[2-[4-(5-methyl-2-phenyl-4-oxazolylmethoxy)phenyl]ethyl]-2,4-oxazolidinedione]		63	60
Cc1oc(-c2ccccc2)nc1COc1ccc(CCCCCC2OC(=O)NC2=O)cc1 (stereo not drawn) [Example 33, 5-[5-[4-(5-methyl-2-phenyl-4-oxazolylmethoxy)phenyl]pentyl]-2,4-oxazolidinedione]	120 to 121	45	59
Cc1oc(-c2ccccc2)nc1COc1ccc(CCCCC2OC(=O)NC2=O)cc1 (stereo not drawn) [Example 34, 5-[4-[4-(5-methyl-2-phenyl-4-oxazolylmethoxy)phenyl]butyl]-2,4-oxazolidinedione]	186 to 187	43	51
Cc1oc(-c2ccccc2)nc1C(=O)COc1ccc(CCCC2OC(=O)NC2=O)cc1 (stereo not drawn) [Example 35, 5-[3-[4-[2-(5-methyl-2-phenyl-4-oxazolyl)-2-oxoethoxy]phenyl]propyl]-2,4-oxazolidinedione]		42	32
Cc1oc(-c2ccccc2)nc1C(O)COc1ccc(CCCC2OC(=O)NC2=O)cc1 (stereo not drawn) [Example 36, 5-[3-[4-[2-hydroxy-2-(5-methyl-2-phenyl-4-oxazolyl)ethoxy]phenyl]propyl]-2,4-oxazolidinedione]	146 to 147	56	48
Cc1oc(-c2ccccc2)nc1COc1ccc(CCCC2OC(=O)NC2=O)cn1 (stereo not drawn) [Example 52, 5-[3-[2-(5-methyl-2-phenyl-4-oxazolylmethoxy)-5-pyridyl]propyl]-2,4-oxazolidinedione]		54	82
Cc1oc(-c2ccccc2)nc1COc1cccc(CCCC2OC(=O)NC2=O)c1 (stereo not drawn) [Example 56, 5-[3-[3-(5-methyl-2-phenyl-4-oxazolylmethoxy)phenyl]propyl]-2,4-oxazolidinedione]		32	24
Cc1oc(-c2ccccc2)nc1COc1ccc(C(C)CCC2OC(=O)NC2=O)cc1 (stereo not drawn) [Example 60, 5-[3-[4-(5-methyl-2-phenyl-4-oxazolylmethoxy)phenyl]butyl]-2,4-oxazolidinedione]		54	77
